Where two headings read alike, the source gives them in different places.
Legend:
Test in all cases: selectivity profiling in a panel of 340 wild-type kinases (Reaction Biology Europe)
Assay type in all cases: binding
[1] = biological target: T1, 340 wild-type kinases (Homo sapiens, UniProt P14616)
T1 construct: purchased Reaction Biology Europe

[2] = biological target: T2, 340 wild-type kinases (Homo sapiens, UniProt P21709)
T2 construct: purchased Reaction Biology Europe
T2 sequence (P21709 26-976): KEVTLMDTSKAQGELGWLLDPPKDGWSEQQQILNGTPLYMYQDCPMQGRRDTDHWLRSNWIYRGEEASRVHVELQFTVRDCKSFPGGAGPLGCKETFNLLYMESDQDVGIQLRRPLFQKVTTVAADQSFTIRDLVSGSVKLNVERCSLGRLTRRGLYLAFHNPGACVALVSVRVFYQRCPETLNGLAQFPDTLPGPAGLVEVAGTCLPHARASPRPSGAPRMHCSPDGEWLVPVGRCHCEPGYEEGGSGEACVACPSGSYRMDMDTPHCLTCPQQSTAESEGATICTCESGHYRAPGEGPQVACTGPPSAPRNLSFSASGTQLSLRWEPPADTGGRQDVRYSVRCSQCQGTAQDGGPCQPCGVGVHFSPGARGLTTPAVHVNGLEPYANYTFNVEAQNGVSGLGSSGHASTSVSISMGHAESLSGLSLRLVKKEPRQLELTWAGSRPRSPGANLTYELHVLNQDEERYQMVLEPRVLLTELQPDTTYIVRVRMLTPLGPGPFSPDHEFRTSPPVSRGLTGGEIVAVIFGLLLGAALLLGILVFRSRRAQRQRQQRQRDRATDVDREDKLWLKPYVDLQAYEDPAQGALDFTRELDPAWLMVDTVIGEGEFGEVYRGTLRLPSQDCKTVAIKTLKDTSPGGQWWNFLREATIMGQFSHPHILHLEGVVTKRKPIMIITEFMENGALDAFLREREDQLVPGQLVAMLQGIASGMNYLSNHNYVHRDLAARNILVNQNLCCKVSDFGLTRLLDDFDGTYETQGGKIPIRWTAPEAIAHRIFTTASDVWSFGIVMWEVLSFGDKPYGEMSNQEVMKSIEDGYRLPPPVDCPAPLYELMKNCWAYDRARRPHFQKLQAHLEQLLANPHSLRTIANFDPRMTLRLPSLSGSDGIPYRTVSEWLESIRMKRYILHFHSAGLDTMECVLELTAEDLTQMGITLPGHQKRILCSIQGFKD

[3] = biological target: T3, 340 wild-type kinases (Homo sapiens, UniProt P51956)
T3 construct: purchased Reaction Biology Europe
T3 sequence (P51956 1-506): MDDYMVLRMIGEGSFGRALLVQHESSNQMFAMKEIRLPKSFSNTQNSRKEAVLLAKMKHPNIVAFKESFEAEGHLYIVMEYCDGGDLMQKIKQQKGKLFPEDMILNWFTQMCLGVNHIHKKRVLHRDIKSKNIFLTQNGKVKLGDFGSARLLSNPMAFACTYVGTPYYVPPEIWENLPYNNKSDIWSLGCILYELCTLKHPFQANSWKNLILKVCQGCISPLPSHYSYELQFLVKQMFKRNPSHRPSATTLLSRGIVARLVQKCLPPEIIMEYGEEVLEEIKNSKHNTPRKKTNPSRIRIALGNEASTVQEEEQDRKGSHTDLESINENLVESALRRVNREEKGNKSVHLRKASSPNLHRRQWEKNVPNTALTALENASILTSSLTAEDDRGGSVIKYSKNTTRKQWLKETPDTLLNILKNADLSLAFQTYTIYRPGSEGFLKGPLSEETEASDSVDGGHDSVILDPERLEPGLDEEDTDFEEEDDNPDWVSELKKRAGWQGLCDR

[4] = biological target: T4, 340 wild-type kinases (Homo sapiens, UniProt P78368)
T4 construct: purchased Reaction Biology Europe

[5] = biological target: T5, 340 wild-type kinases (Homo sapiens, UniProt Q15831)
T5 construct: purchased Reaction Biology Europe
T5 sequence (Q15831 1-433): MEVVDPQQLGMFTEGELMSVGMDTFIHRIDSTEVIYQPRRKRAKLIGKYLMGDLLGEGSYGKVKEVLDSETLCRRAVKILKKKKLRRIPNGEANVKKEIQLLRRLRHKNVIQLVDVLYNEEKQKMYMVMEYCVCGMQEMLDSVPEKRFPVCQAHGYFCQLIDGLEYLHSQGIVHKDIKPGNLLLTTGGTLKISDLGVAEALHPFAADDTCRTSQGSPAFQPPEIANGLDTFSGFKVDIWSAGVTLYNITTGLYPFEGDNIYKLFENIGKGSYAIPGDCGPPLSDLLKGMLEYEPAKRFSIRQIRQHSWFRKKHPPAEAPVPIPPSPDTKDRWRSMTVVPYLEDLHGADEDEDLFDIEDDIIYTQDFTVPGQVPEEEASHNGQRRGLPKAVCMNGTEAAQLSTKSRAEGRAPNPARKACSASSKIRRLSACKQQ

T1 sequence (P14616 27-1297): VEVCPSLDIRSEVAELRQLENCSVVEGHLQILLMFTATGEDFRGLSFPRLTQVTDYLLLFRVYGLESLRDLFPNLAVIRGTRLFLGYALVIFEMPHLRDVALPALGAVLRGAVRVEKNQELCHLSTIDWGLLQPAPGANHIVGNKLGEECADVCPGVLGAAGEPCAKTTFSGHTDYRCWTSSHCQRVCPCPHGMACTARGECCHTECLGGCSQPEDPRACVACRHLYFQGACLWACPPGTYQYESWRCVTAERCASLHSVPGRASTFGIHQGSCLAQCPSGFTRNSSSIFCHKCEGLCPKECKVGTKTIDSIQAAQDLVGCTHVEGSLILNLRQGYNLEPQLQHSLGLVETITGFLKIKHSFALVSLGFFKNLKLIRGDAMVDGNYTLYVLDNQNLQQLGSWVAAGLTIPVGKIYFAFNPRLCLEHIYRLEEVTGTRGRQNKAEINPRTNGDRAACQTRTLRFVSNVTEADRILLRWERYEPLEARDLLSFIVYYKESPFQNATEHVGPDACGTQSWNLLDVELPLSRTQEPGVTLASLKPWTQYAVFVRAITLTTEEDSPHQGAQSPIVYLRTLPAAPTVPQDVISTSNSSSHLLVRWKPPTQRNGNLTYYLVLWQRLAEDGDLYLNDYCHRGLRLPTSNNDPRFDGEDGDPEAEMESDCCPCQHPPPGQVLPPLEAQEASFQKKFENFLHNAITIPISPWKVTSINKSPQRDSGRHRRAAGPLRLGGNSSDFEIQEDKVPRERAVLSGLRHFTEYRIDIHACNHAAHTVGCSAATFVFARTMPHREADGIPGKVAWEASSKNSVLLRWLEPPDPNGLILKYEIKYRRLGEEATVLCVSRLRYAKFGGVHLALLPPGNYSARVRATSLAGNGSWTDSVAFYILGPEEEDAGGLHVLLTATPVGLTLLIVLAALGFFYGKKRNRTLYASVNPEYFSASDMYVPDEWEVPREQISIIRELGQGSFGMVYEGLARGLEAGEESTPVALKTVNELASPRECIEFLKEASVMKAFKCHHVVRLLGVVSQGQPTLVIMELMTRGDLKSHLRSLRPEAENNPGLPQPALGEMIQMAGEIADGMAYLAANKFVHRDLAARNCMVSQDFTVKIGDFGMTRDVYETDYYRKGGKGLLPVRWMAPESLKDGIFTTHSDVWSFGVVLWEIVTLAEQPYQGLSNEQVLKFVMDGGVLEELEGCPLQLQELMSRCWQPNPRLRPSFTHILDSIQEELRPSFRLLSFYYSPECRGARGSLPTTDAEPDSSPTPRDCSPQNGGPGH
T4 sequence (P78368 whole entry): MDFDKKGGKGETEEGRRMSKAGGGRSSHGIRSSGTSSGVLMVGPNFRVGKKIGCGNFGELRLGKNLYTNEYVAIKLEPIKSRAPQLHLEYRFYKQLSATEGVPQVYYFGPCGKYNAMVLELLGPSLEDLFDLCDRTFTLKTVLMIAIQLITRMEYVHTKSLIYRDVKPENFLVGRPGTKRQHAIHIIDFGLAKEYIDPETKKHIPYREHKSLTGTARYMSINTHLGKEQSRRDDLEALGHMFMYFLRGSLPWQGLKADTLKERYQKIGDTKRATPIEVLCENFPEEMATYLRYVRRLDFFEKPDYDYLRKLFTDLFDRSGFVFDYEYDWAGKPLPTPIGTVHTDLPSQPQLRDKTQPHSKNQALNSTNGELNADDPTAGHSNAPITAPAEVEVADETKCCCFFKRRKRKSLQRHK

CNC(=O)c1ccc2c(c1)C(=O)c1ccc(Nc3ccc(F)c(NC(=O)C4CC4)c3)cc1CC2 [Compound 2015]
remaining activity at 0.2 µM ([1]; 0.2 µM 2015, read-out: INSRR residual activity): 96%
remaining activity at 1 µM ([1]; 1 µM 2015, read-out: INSRR residual activity): 97.4%
remaining activity at 0.2 µM ([1]; INSRR, 0.2 µM, read-out: residual activity): 96%
remaining activity at 1 µM ([1]; INSRR, 1 µM, read-out: residual activity): 97.4%
remaining activity at 0.2 µM ([2]; 0.2 µM 2015, read-out: EPHA1 residual activity): 87.2%
remaining activity at 1 µM ([2]; 1 µM 2015, read-out: EPHA1 residual activity): 82.1%
remaining activity at 0.2 µM ([2]; EPHA1, 0.2 µM, read-out: residual activity): 87.2%
remaining activity at 1 µM ([2]; EPHA1, 1 µM, read-out: residual activity): 82.1%
remaining activity at 0.2 µM ([3]; 0.2 µM 2015, read-out: NEK3 residual activity): 98.3%
remaining activity at 1 µM ([3]; 1 µM 2015, read-out: NEK3 residual activity): 88.8%
remaining activity at 0.2 µM ([3]; NEK3, 0.2 µM, read-out: residual activity): 98.3%
remaining activity at 1 µM ([3]; NEK3, 1 µM, read-out: residual activity): 88.8%
remaining activity at 0.2 µM ([4]; 0.2 µM 2015, read-out: CK1gamma2 residual activity): 111%
remaining activity at 1 µM ([4]; 1 µM 2015, read-out: CK1gamma2 residual activity): 113%
remaining activity at 0.2 µM ([4]; CK1gamma2, 0.2 µM, read-out: residual activity): 111%
remaining activity at 1 µM ([4]; CK1gamma2, 1 µM, read-out: residual activity): 113%
remaining activity at 0.2 µM ([5]; 0.2 µM 2015, read-out: LKB1/MO25a/STRADa residual activity): 115%
remaining activity at 1 µM ([5]; 1 µM 2015, read-out: LKB1/MO25a/STRADa residual activity): 91.6%
remaining activity at 0.2 µM ([5]; LKB1/MO25a/STRADa, 0.2 µM, read-out: residual activity): 115%
remaining activity at 1 µM ([5]; LKB1/MO25a/STRADa, 1 µM, read-out: residual activity): 91.6%
